How the values were obtained:
[1] = system: K562; assay: Induction of mitotic arrest in human K562 cells assessed as mitotic indices at 100 uM by light microscopy; format: functional
[2] = system: CAKI-1; assay: Antiproliferative activity against human CAKI-1 cells after 3 days by fluorescence assay; format: functional; conditions: CAKI-1, 72 h
[3] = Antiproliferative activity against human RXF393 cells after 3 days by fluorescence assay; format: functional; conditions: RXF 393, 72 h
[4] = system: SN12C; assay: Antiproliferative activity against human SN12C cells after 3 days by fluorescence assay; format: functional; conditions: 72 h
[5] = system: TK-10; assay: Antiproliferative activity against human TK10 cells after 3 days by fluorescence assay; format: functional; conditions: TK-10, 72 h
[6] = Antiproliferative activity against human UO31 cells after 3 days by fluorescence assay; format: functional; conditions: UO-31, 72 h
[7] = Antiproliferative activity against human PC3 cells after 3 days by fluorescence assay; format: functional; conditions: PC-3, 72 h
[8] = system: DU-145; assay: (§1) Antiproliferative activity against human DU145 cells after 3 days by fluorescence assay; format: functional; conditions: DU-145, 72 h
[9] = system: MCF7; assay: Antiproliferative activity against human MCF7 cells after 3 days by fluorescence assay; format: functional; conditions: MCF7, 72 h
[10] = system: MDA-MB-231; assay: Antiproliferative activity against human MDA-MB-231 cells after 3 days by fluorescence assay; format: functional; conditions: MDA-MB-231, 72 h
[11] = Antiproliferative activity against human Hs 578T cells after 3 days by fluorescence assay; format: functional; conditions: 72 h
[12] = Antiproliferative activity against human BT549 cells after 3 days by fluorescence assay; format: functional; conditions: BT-549, 72 h
[13] = system: T47D; assay: Antiproliferative activity against human T47D cells after 3 days by fluorescence assay; format: functional; conditions: 72 h
[14] = system: MDA-MB-468; assay: Antiproliferative activity against human MDA-MB-468 cells after 3 days by fluorescence assay; format: functional; conditions: MDA-MB-468, 72 h
[15] = target: Tubulin; assay: Displacement of [3H]-colchicine from tubulin (unknown origin) after 10 mins by turbidimetrically; format: protein-complex assay, Homo sapiens
[16] = target: T1, Tubulin (Homo sapiens) (UniProt P68371+Q9H4B7+P0DPH7+P68366+Q13509+Q71U36+P04350+Q3ZCM7+P07437+P68363+Q9BQE3+Q6PEY2+Q13885+Q9BVA1+Q9BUF5); assay: Displacement of [3H]-colchicine from tubulin (unknown origin) at 1 uM after 10 mins by turbidimetrically relative to control; format: protein-complex assay
[17] = target: T1, Tubulin (Homo sapiens); assay: Displacement of [3H]-colchicine from tubulin (unknown origin) at 5 uM after 10 mins by turbidimetrically relative to control; format: protein-complex assay
[18] = target: T1, Tubulin (Homo sapiens); assay: Displacement of [3H]-colchicine from tubulin (unknown origin) at 50 uM after 10 mins by turbidimetrically relative to control; format: protein-complex assay
[19] = system: DU-145; assay: as §1; format: functional; conditions: DU-145, 72 h; remark: listed apart in the source
[20] = system: CCRF-CEM; assay: Antiproliferative activity against human CCRF-CEM cells after 3 days by fluorescence assay; format: functional; conditions: 72 h
[21] = system: HL-60(TB); assay: Antiproliferative activity against human HL-60(TB) cells after 3 days by fluorescence assay; format: functional; conditions: HL-60, 72 h
[22] = system: K562; assay: Antiproliferative activity against human K562 cells after 3 days by fluorescence assay; format: functional; conditions: K562, 72 h
[23] = Antiproliferative activity against human MOLT4 cells after 3 days by fluorescence assay; format: functional; conditions: MOLT-4, 72 h
[24] = Antiproliferative activity against human RPMI8226 cells after 3 days by fluorescence assay; format: functional; conditions: RPMI-8226, 72 h
[25] = system: SR; assay: Antiproliferative activity against human SR cells after 3 days by fluorescence assay; format: functional; conditions: 72 h
[26] = system: A549; assay: Antiproliferative activity against human A549 cells after 3 days by fluorescence assay; format: functional; conditions: A549, 72 h
[27] = Antiproliferative activity against human EKVX cells after 3 days by fluorescence assay; format: functional; conditions: 72 h
[28] = system: HOP-62; assay: Antiproliferative activity against human HOP62 cells after 3 days by fluorescence assay; format: functional; conditions: HOP-62, 72 h
[29] = Antiproliferative activity against human HOP92 cells after 3 days by fluorescence assay; format: functional; conditions: HOP-92, 72 h
[30] = system: NCI-H226; assay: Antiproliferative activity against human NCI-H226 cells after 3 days by fluorescence assay; format: functional; conditions: NCI-H226, 72 h
[31] = system: NCI-H23; assay: Antiproliferative activity against human NCI-H23 cells after 3 days by fluorescence assay; format: functional; conditions: NCI-H23, 72 h
[32] = system: NCI-H322M; assay: Antiproliferative activity against human NCI-H322M cells after 3 days by fluorescence assay; format: functional; conditions: 72 h
[33] = system: NCI-H460; assay: Antiproliferative activity against human NCI-H460 cells after 3 days by fluorescence assay; format: functional; conditions: NCI-H460, 72 h
[34] = system: NCI-H522; assay: Antiproliferative activity against human NCI-H522 cells after 3 days by fluorescence assay; format: functional; conditions: NCI-H522, 72 h
[35] = Antiproliferative activity against human COLO205 cells after 3 days by fluorescence assay; format: functional; conditions: COLO 205, 72 h
[36] = Antiproliferative activity against human HCC2998 cells after 3 days by fluorescence assay; format: functional; conditions: HCC 2998, 72 h
[37] = Antiproliferative activity against human HCT116 cells after 3 days by fluorescence assay; format: functional; conditions: HCT-116, 72 h
[38] = Antiproliferative activity against human HCT15 cells after 3 days by fluorescence assay; format: functional; conditions: HCT-15, 72 h
[39] = system: HT-29; assay: Antiproliferative activity against human HT-29 cells after 3 days by fluorescence assay; format: functional; conditions: HT-29, 72 h
[40] = system: KM12; assay: Antiproliferative activity against human KM12 cells after 3 days by fluorescence assay; format: functional; conditions: KM12, 72 h
[41] = system: SW-620; assay: Antiproliferative activity against human SW620 cells after 3 days by fluorescence assay; format: functional; conditions: SW-620, 72 h
[42] = system: SF-268; assay: Antiproliferative activity against human SF268 cells after 3 days by fluorescence assay; format: functional; conditions: SF-268, 72 h
[43] = Antiproliferative activity against human SF295 cells after 3 days by fluorescence assay; format: functional; conditions: SF-295, 72 h
[44] = Antiproliferative activity against human SF539 cells after 3 days by fluorescence assay; format: functional; conditions: SF-539, 72 h
[45] = system: SNB-19; assay: Antiproliferative activity against human SNB19 cells after 3 days by fluorescence assay; format: functional; conditions: SNB-19, 72 h
[46] = system: SNB-75; assay: Antiproliferative activity against human SNB75 cells after 3 days by fluorescence assay; format: functional; conditions: SNB-75, 72 h
[47] = system: U-251; assay: Antiproliferative activity against human U251 cells after 3 days by fluorescence assay; format: functional; conditions: U-251, 72 h
[48] = Antiproliferative activity against human LOXIMVI cells after 3 days by fluorescence assay; format: functional; conditions: LOX IMVI, 72 h
[49] = system: Malme-3M; assay: Antiproliferative activity against human MALME-3M cells after 3 days by fluorescence assay; format: functional; conditions: 72 h
[50] = system: M14; assay: Antiproliferative activity against human M14 cells after 3 days by fluorescence assay; format: functional; conditions: M14, 72 h
[51] = system: MDA-MB-435; assay: Antiproliferative activity against human MDA-MB-435 cells after 3 days by fluorescence assay; format: functional; conditions: MDA-MB-435, 72 h
[52] = system: SK-MEL-2; assay: Antiproliferative activity against human SK-MEL-2 cells after 3 days by fluorescence assay; format: functional; conditions: SK-MEL-2, 72 h
[53] = system: SK-MEL-28; assay: Antiproliferative activity against human SK-MEL-28 cells after 3 days by fluorescence assay; format: functional; conditions: SK-MEL-28, 72 h
[54] = system: SK-MEL-5; assay: Antiproliferative activity against human SK-MEL-5 cells after 3 days by fluorescence assay; format: functional; conditions: SK-MEL-5, 72 h
[55] = Antiproliferative activity against human UACC257 cells after 3 days by fluorescence assay; format: functional; conditions: UACC-257, 72 h
[56] = Antiproliferative activity against human UACC62 cells after 3 days by fluorescence assay; format: functional; conditions: UACC-62, 72 h
[57] = system: IGROV-1; assay: Antiproliferative activity against human IGROV1 cells after 3 days by fluorescence assay; format: functional; conditions: IGROV-1, 72 h
[58] = Antiproliferative activity against human OVCAR3 cells after 3 days by fluorescence assay; format: functional; conditions: OVCAR-3, 72 h
[59] = Antiproliferative activity against human OVCAR4 cells after 3 days by fluorescence assay; format: functional; conditions: OVCAR-4, 72 h
[60] = Antiproliferative activity against human OVCAR5 cells after 3 days by fluorescence assay; format: functional; conditions: OVCAR-5, 72 h
[61] = Antiproliferative activity against human OVCAR8 cells after 3 days by fluorescence assay; format: functional; conditions: OVCAR-8, 72 h
[62] = Antiproliferative activity against human NCI-ADR-RES cells after 3 days by fluorescence assay; format: functional; conditions: 72 h
[63] = Antiproliferative activity against human SKOV3 cells after 3 days by fluorescence assay; format: functional; conditions: SK-OV-3, 72 h
[64] = system: 786-0; assay: Antiproliferative activity against human 786-0 cells after 3 days by fluorescence assay; format: functional; conditions: 786-0, 72 h
[65] = system: A498; assay: Antiproliferative activity against human A498 cells after 3 days by fluorescence assay; format: functional; conditions: A498, 72 h
[66] = system: ACHN; assay: Antiproliferative activity against human ACHN cells after 3 days by fluorescence assay; format: functional; conditions: 72 h

COc1ccc(/C=C\c2cc(OC)c(OC)c(OC)c2)cc1O [COMBRETASTATIN A4] showed an Activity [1] of 82%.
COc1cccc(NC(=O)N2CCC(c3nc(-c4ccc(C)cc4)no3)CC2)c1 gave a GI50 [2] of 5.75 µM, a GI50 [3] of 4.07 µM and a GI50 [4] of 11 µM. The GI50 [5] was 9.55 µM, the GI50 [6] was 6.46 µM and the GI50 [7] was 4.37 µM. It also gave a GI50 [8] of 3.63 µM, a GI50 [9] of 3.24 µM and a GI50 [10] of 18.2 µM. For the same molecule, the GI50 [11] was 5.5 µM, the GI50 [12] was 13.8 µM and the GI50 [13] was 5.5 µM. It also gave a GI50 [14] of 2.45 µM, an IC50 [15] of 3 µM and an inhibition [16] of 5.7%. For the same molecule, the inhibition [17] was 8.2%, the inhibition [18] was 19% and the GI50 [19] was 4.5 µM. It also gave a GI50 [20] of 3.55 µM, a GI50 [21] of 0.603 µM and a GI50 [22] of 0.355 µM. For the same molecule, the GI50 [23] was 5.5 µM, the GI50 [24] was 3.31 µM and the GI50 [25] was 0.417 µM. For the same molecule, the GI50 [26] was 5.13 µM, the GI50 [27] was 6.76 µM and the GI50 [28] was 4.68 µM. The GI50 [29] was 3.31 µM, the GI50 [30] was 9.12 µM and the GI50 [31] was 6.03 µM. It also gave a GI50 [32] of 11.7 µM, a GI50 [33] of 3.47 µM and a GI50 [34] of 4.07 µM. The GI50 [35] was 3.8 µM, the GI50 [36] was 5.01 µM and the GI50 [37] was 4.79 µM. The GI50 [38] was 4.9 µM, the GI50 [39] was 3.31 µM and the GI50 [40] was 3.31 µM. The GI50 [41] was 3.98 µM, the GI50 [42] was 7.24 µM and the GI50 [43] was 3.09 µM. For the same molecule, the GI50 [44] was 3.47 µM, the GI50 [45] was 8.71 µM and the GI50 [46] was 7.94 µM. It also gave a GI50 [47] of 4.17 µM, a GI50 [48] of 5.5 µM and a GI50 [49] of 4.17 µM. For the same molecule, the GI50 [50] was 3.24 µM, the GI50 [51] was 0.537 µM and the GI50 [52] was 11 µM. The GI50 [53] was 13.2 µM, the GI50 [54] was 3.39 µM and the GI50 [55] was 16.6 µM. It also gave a GI50 [56] of 6.61 µM, a GI50 [57] of 9.12 µM and a GI50 [58] of 2.63 µM. The GI50 [59] was 7.24 µM, the GI50 [60] was 13.2 µM and the GI50 [61] was 7.08 µM. It also gave a GI50 [62] of 2.75 µM, a GI50 [63] of 4.47 µM and a GI50 [64] of 6.03 µM. For the same molecule, the GI50 [65] was 5.01 µM and the GI50 [66] was 5.89 µM.
